Source: US12486219B2, “Modified tetracyclines for treatment of alcohol use disorder, pain and other disorders involving potential inflammatory processes” (Texas Tech University System, priority 2018, dated 2025)

How the values were obtained:
[1] = system: binge ethanol consumption; assay: Binge ethanol consumption, minocycline derivatives (FIGS. 8C to 15C); assay type: in vivo; details: figure legend only, values not given
E. coli = E. coli zone of inhibition (ZOI) and recovered colony forming units (CFU) per disk; assay type: cell-based; details: dose response
Method: Minocycline and two acetylated derivatives, CMM1 (B) and CMM2 (Y), were tested in a dose response manner for A) zone of inhibition (ZOI) and B) recovered colony forming units (CFU) per disk.

[2] = system: Drinking In the Dark (DID) murine model of binge drinking; assay: Drinking In the Dark (DID) murine model of binge drinking; assay type: in vivo, mice; details: 0, 25, 35, 50 and 100 mg/kg p.o. vs control; n=4/group; p=0.004; dose-dependent
Method: Using a standard Drinking In the Dark (DID) murine model of binge drinking, we tested the effect of 0, 25, 35, 50 and 100 mg/kg per os (p.o.) acetylated minocycline (derivative Y, or CMM1) vs control.

DBA/2J mice = assay: Alcohol withdrawal, Handling Induced Convulsion scores; assay type: in vivo
Method: Female and male DBA/2J mice were tested with CMM1, 100 mg/kg per p.o., at 2 hrs following 4 g/kg 20% ethanol in saline. Shown are the Handling Induced Convulsion scores, background subtracted and summed over 24 hours. […] Mean±SEM, n=5/group.

AUD traits = details: seven tetracyclines tested; cited from earlier work
DID consumption = DID consumption after intracerebroventricular (ICV) drug; assay type: in vivo, mice; details: 3 ul of drug (9 mg/ml) icv 20 hrs prior to DID testing; n=9-11; p<0.01
Method: To test the hypothesis that tigecycline works at the level of the CNS, rather than the PNS, 3 ul of drug (9 mg/ml) was given icy 20 hrs prior to DID testing. n=9-11, mean±SEM, **p<0.01.

DID ethanol consumption = DID ethanol consumption after "sterilization" of the GI microbiome; assay type: in vivo, mice; details: ten-day ampicillin, neomycin, metronidazole, vancomycin; tigecycline 100 mg/kg i.p.; n=7
Method: A ten-day “sterilization” treatment with ampicillin, neomycin, metronidozale and vancomycin was used. Bedding was changed daily to avoid repopulation. DID was started on day 11 after one day of no metronidazole. Tigecycline was given at 100 mg/kg intraperitoneal (i.p.) n=7, mean±SEM.

[3] = cited from earlier work

COc1ccc(N(C)C)c2c1C(=O)C1=C(O)c3c(O)c(C(=O)NC(C)=O)c(O)c(N(C)C)c3CC1C2 (stereo not shown) [Methyl Ether N-Monoacetate Minocycline, 4,7-Bis-dimethylamino-1,3,12-trihydroxy-10-methoxy-11-oxo-5,5a,6,11-tetrahydro-naphthacene-2-carboxylic acid acetyl-amide]
binge ethanol consumption [1]: reduction of binge ethanol consumption

CC(=O)NC(=O)c1c(OC(C)=O)c2c(c(N(C)C)c1OC(C)=O)CC1Cc3c(N(C)C)ccc(OC(C)=O)c3C(=O)C1=C2OC(C)=O (stereo not shown) [CMM1]
antibiotic activity (ZOI and CFU per disk) (E. coli): loss of antibiotic activity even at high doses | ethanol consumption (DID) [2]: significantly reduced drinking | alcohol withdrawal symptoms (Handling Induced Convulsion scores summed over 24 hours) (DBA/2J mice; 100 mg/kg p.o. at 2 hrs following 4 g/kg 20% ethanol, female and male DBA/2J mice, n=5/group): reduced alcohol withdrawal symptoms | efficacy on withdrawal compared with minocycline (DBA/2J mice; 100 mg/kg p.o., DBA/2J mice): more effective than the parent drug, minocycline | efficacy on withdrawal, females vs males (DBA/2J mice; 100 mg/kg p.o., DBA/2J mice): more effective in females

CC(=O)NC(=O)c1c(O)cc2c(c1O)C(O)=C1C(=O)c3c(OC(C)=O)ccc(N(C)C)c3CC1C2 (stereo not shown) [De Methyl Diacetate Minocycline, Acetic acid 9-acetylcarbamoyl-4-dimethylamino-8,10,11-trihydroxy-12-oxo-5,5a,6,12-tetrahydro-naphthacen-1-yl ester]
binge ethanol consumption [1]: reduction of binge ethanol consumption

CC(=O)NC(=O)c1c(OC(C)=O)c2c(c(N(C)C)c1OC(C)=O)CC1Cc3c(N(C)C)ccc(OC(C)=O)c3C(=O)C1=C2O (stereo not shown) [CMM2]
antibiotic activity (ZOI and CFU per disk) (E. coli): loss of antibiotic activity even at high doses

COc1ccc(N(C)C)c2c1C(=O)C1=C(O)C3(O)C(=O)C(C(N)=O)=C(O)C(N(C)C)C3CC1C2 (stereo not shown) [Methyl Ether Minocycline, 4,7-Bis-dimethylamino-3,12,12a-trihydroxy-10-methoxy-1,11-dioxo-1,4,4a,5,5a,6,11,12a-octahydro-naphthacene-2-carboxylic acid amide]
binge ethanol consumption [1]: reduction of binge ethanol consumption

CC(=O)NC(=O)c1c(OC(C)=O)c2c(c(N(C)C)c1OC(C)=O)CC1Cc3c(N(C)C)ccc(OC(C)=O)c3C(=O)C1=C2OC(C)=O (stereo not shown) [Penta Acetyl Minocycline, Acetic acid 3,10,12-triacetoxy-2-acetylcarbamoyl-4,7-bis-dimethylamino-11-oxo-5,5a,6,11-tetrahydro-naphthacen-1-yl ester]
binge ethanol consumption [1]: reduction of binge ethanol consumption

CN(C)c1cc(NC(=O)CNC(C)(C)C)c(O)c2c1C[C@H]1C[C@H]3[C@H](N(C)C)C(O)=C(C(N)=O)C(=O)[C@@]3(O)C(O)=C1C2=O [Tigecycline]
efficacy against AUD traits (AUD traits): effective | DID consumption (DID consumption): reduced DID consumption | DID ethanol consumption / tigecycline efficacy, sterilized vs not (DID ethanol consumption): No significant difference

CCCCOc1ccc(N(C)C)c2c1C(=O)C1=C(O)C3(O)C(=O)C(C(N)=O)=C(O)C(N(C)C)C3CC1C2 (stereo not shown) [Butyl Ether Minocycline, 10-Butoxy-4,7-bis-dimethylamino-3,12,12a-trihydroxy-1,11-dioxo-1,4,4a,5,5a,6,11,12a-octahydro-naphthacene-2-carboxylic acid amide]
binge ethanol consumption [1]: reduction of binge ethanol consumption

C[C@H]1c2cccc(O)c2C(=O)C2=C(O)[C@]3(O)C(=O)C(C(N)=O)=C(O)[C@@H](N(C)C)[C@@H]3[C@@H](O)[C@@H]21 [Doxycycline]
efficacy against AUD traits (AUD traits): effective

CN(C)c1ccc(O)c2c1CC1CC3C(N(C)C)C(O)=C(C(N)=O)C(=O)C3(O)C(O)=C1C2=O (stereo not shown) [Minocycline, 4.7-Bis-dimcthylamino-3,10,12,12a-tctrahydroxy-1,11-dioxo-1,4.4a,5,5a,6,11,12 a-octahydro-naphthacene-2-carboxylic acid amide]
efficacy against AUD traits (AUD traits): effective

CCCOc1ccc(N(C)C)c2c1C(=O)C1=C(O)C3(O)C(=O)C(C(N)=O)=C(O)C(N(C)C)C3CC1C2 (stereo not shown) [Propyl Ether Minocycline, 4,7-Bis-dimethylamino-3,12,12a-trihydroxy-1,11-dioxo-10-propoxy-1,4,4a,5,5a,6,11,12a-octahydro-naphthacene-2-carboxylic acid amide]
binge ethanol consumption [1]: reduction of binge ethanol consumption

CN(C)[C@@H]1C(O)=C(C(N)=O)C(=O)[C@@]2(O)C(O)=C3C(=O)c4c(O)cccc4[C@@](C)(O)[C@H]3[C@H](O)[C@@H]12 [Oxytetracycline]
LogD [3]: −4.25 | LogP [3]: −1.5

CC(=O)NC(=O)c1c(OC(C)=O)c2c(c(N(C)C)c1OC(C)=O)CC1Cc3c(N(C)C)ccc(OC(C)=O)c3C(=O)C1=C2O (stereo not shown) [Tetra Acetyl Minocycline, Acetic acid 3,10-diacetoxy-2-acetylcarbamoyl-4,7-bis-dimethylamino-12-hydroxy-11-oxo-5,5a,6,11-tetrahydro-naphthacen-1-yl ester]
binge ethanol consumption [1]: reduction of binge ethanol consumption

COc1ccc(N(C)C)c2c1C(=O)C1=C(O)c3c(c(N(C)C)c(OC(C)=O)c(C(=O)NC(C)=O)c3OC(C)=O)CC1C2 (stereo not shown) [Methyl Ether Tri Acetate Minocycline, Acetic acid 4-acetoxy-3-acetylcarbamoyl-1,10-bis-dimethylamino-5-hydroxy-7-methoxy-6-oxo-6,11,11a,12-tetrahydro-naphthacen-2-yl ester]
binge ethanol consumption [1]: reduction of binge ethanol consumption

CCOc1ccc(N(C)C)c2c1C(=O)C1=C(O)C3(O)C(=O)C(C(N)=O)=C(O)C(N(C)C)C3CC1C2 (stereo not shown) [Ethyl Ether Minocycline, 4,7-Bis-dimethylamino-10-ethoxy-3,12,12a-trihydroxy-1,11-dioxo-1,4,4a,5,5a,6,11,12a-octahydro-naphthacene-2-carboxylic acid amide]
binge ethanol consumption [1]: reduction of binge ethanol consumption
